# Test results reported in the supplement of paper PMC11061612.
# How the values were obtained:
# Assay in all cases: Bliss excess, mean over the matrix (fraction); higher = more synergy
# [1] = test system: AN3-CA (Endometrial Carcinoma)
# Procedure, shortened: (§1)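 Cell lines grown in DMEM/F12 or RPMI with 10% FBS were plated in 1536-well plates and held 24 hours at 37°C, 5% CO2 before 72 hours of exposure to two-drug dose matrices, with DMSO typically at 0.2%. CellTiter-Glo 2.0 luminescence gave viability, which was converted to inhibition. Vehicle wells were set to 0 and blank wells to 1. Combination Emax is the second-highest inhibition in the matrix, and Bliss excess is the observed combination effect minus the expected EA + EB − EA·EB, where EA and EB are the single-agent effects.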
# [2] = test system: OVTOKO (Ovarian Carcinoma)
# Procedure, shortened: as §1
# [3] = test system: EB-3 (Burkitt's Lymphoma)
# Procedure, shortened: as §1
# [4] = test system: BALL-1 (B-Lymphoblastic Leukemia)
# Procedure, shortened: as §1
# [5] = test system: RERF-LC-KJ (Lung Adenocarcinoma)
# Procedure, shortened: as §1
# [6] = test system: AsPC-1 (Pancreatic Carcinoma)
# Procedure, shortened: as §1
# [7] = test system: SJRH30 (Rhabdomyosarcoma)
# Procedure, shortened: as §1
# [8] = test system: NCI-H810 (Non-Small Cell Lung Carcinoma)
# Procedure, shortened: as §1
# [9] = test system: HSC-3 (Oral Cavity Carcinoma)
# Procedure, shortened: as §1
# [10] = test system: KYM-1 (Rhabdomyosarcoma)
# Procedure, shortened: as §1
# [11] = test system: NCI-H1755 (Lung Adenocarcinoma)
# Procedure, shortened: as §1
# [12] = test system: OV-90 (Ovarian Carcinoma)
# Procedure, shortened: as §1
# [13] = test system: SNU-175 (Colorectal Carcinoma)
# Procedure, shortened: as §1
# [14] = test system: RT4 (Bladder Carcinoma)
# Procedure, shortened: as §1
# [15] = test system: PC-14 (Lung Adenocarcinoma)
# Procedure, shortened: as §1
# [16] = test system: RPMI-8866 (Chronic Myelogenous Leukemia)
# Procedure, shortened: as §1
# [17] = test system: KYSE-70 (Esophageal Squamous Cell Carcinoma)
# Procedure, shortened: as §1
# [18] = test system: HTC-C3 (Thyroid Gland Carcinoma)
# Procedure, shortened: as §1
# [19] = test system: NCI-H1155 (Non-Small Cell Lung Carcinoma)
# Procedure, shortened: as §1
# [20] = test system: COLO-684 (Endometrial Carcinoma)
# Procedure, shortened: as §1
SMILES,Bliss excess [1],Bliss excess [2],Bliss excess [3],Bliss excess [4],Bliss excess [5],Bliss excess [6],Bliss excess [7],Bliss excess [8],Bliss excess [9],Bliss excess [10],Bliss excess [11],Bliss excess [12],Bliss excess [13],Bliss excess [14],Bliss excess [15],Bliss excess [16],Bliss excess [17],Bliss excess [18],Bliss excess [19],Bliss excess [20]
"CC1(C)CCC(CN2CCN(c3ccc(C(=O)NS(=O)(=O)c4ccc(NCC5CCOCC5)c([N+](=O)[O-])c4)c(Oc4cnc5[nH]ccc5c4)c3)CC2)=C(c2ccc(Cl)cc2)C1 [Venetoclax] + COc1cc(Nc2ncc3c(n2)-c2ccc(Cl)cc2C(c2c(F)cccc2OC)=NC3)ccc1C(=O)O [Alisertib] (first compound max 1 µM, 7x7, partner max 10 µM)",0.0374,-0.0508,-0.0103,0.0181,-0.0527,-0.0701,0.0315,0.0303,0.0079,0.0069,-0.0281,-0.0536,0.007,0.0354,0.0366,0.0475,-0.0084,-0.0285,0.346,-0.0153
"COc1nnc2ccc(N3CCC(c4ccc(OCCN5CCN(C)C(=O)[C@H]5C)cc4)CC3)nn12 [AZD5153] + C[C@@H]1COCCN1C2=NC(=NC(=C2)C3(CC3)[S@](=N)(=O)C)C4=C5C=CNC5=NC=C4 [AZD6738] (first compound max 1 µM, 7x7, partner max 10 µM)",-0.0311,0.0999,-0.104,0.0119,0.0393,0.0778,0.0588,-0.0236,-0.0181,-0.0398,0.0198,-0.0249,0.0289,0.0449,0.0294,-0.0364,-0.0358,-0.0187,0.0406,-0.0231
"CCc1c2c(nc3ccc(O)cc13)-c1cc3c(c(=O)n1C2)COC(=O)[C@]3(O)CC [SN-38] + O=C(c1cc(Cc2n[nH]c(=O)c3ccccc23)ccc1F)N1CCN(C(=O)C2CC2)CC1 [Olaparib] (first compound max 0.3 µM, 7x7, partner max 10 µM)",,,-0.0075,0.0629,,-0.0277,0.0591,0.107,0.0263,0.0383,0.0419,0.0633,0.0238,0.0702,0.0707,0.0155,0.0423,0.0591,0.0532,-0.0188
"Cc1c2c(nn1C)CSCc1cc(n(C)n1)CSc1cc(c3ccccc3c1)OCCCc1c(C(=O)O)n(C)c3c-2c(Cl)ccc13 [AZD5991] + Cn1cnc2c(F)c(Nc3ccc(Br)cc3Cl)c(C(=O)NOCCO)cc21 [Selumetinib] (first compound max 1 µM, 7x7, partner max 3 µM)",0.0158,-0.039,-0.0424,-0.0064,0.0466,-0.0325,0.0386,-0.0133,0.0137,0.0084,0.0427,-0.0143,,0.0266,0.0286,-0.0462,0.0244,-0.0271,0.0008,-0.0177
"CC(=O)c1c(C)c2cnc(Nc3ccc(N4CCNCC4)cn3)nc2n(C2CCCC2)c1=O [Palbociclib] + CN(CC[C@H](CSC1=CC=CC=C1)NC2=C(C=C(C=C2)S(=O)(=O)NC(=O)C3=CC=C(C=C3)N4CCC(CC4)[C@H](C5=CC=CC=C5C6=CC=C(C=C6)Cl)O)S(=O)(=O)C(F)(F)F)CCO [AZD4320] (first compound max 10 µM, 7x7, partner max 1 µM)",0.0108,-0.0621,,-0.0446,-0.0742,-0.129,-0.0467,,-0.0254,,,,-0.0082,-0.0409,-0.0307,-0.0036,,-0.0712,0.0351,
"C[C@@H](c1ccc2nccn2c1)n1nnc2ncc(-c3cnn(C)c3)nc21 [Savolitinib] + CN(CC[C@H](CSC1=CC=CC=C1)NC2=C(C=C(C=C2)S(=O)(=O)NC(=O)C3=CC=C(C=C3)N4CCC(CC4)[C@H](C5=CC=CC=C5C6=CC=C(C=C6)Cl)O)S(=O)(=O)C(F)(F)F)CCO [AZD4320] (first compound max 1 µM, 7x7, partner max 1 µM)",-0.0575,-0.0718,,-0.0078,-0.0454,-0.0896,-0.0203,,-0.0152,,,,-0.045,-0.0284,0.0011,-0.0815,,-0.0215,-0.0513,
"COc1nnc2ccc(N3CCC(c4ccc(OCCN5CCN(C)C(=O)[C@H]5C)cc4)CC3)nn12 [AZD5153] + CN(CC[C@H](CSC1=CC=CC=C1)NC2=C(C=C(C=C2)S(=O)(=O)NC(=O)C3=CC=C(C=C3)N4CCC(CC4)[C@H](C5=CC=CC=C5C6=CC=C(C=C6)Cl)O)S(=O)(=O)C(F)(F)F)CCO [AZD4320] (first compound max 1 µM, 7x7, partner max 1 µM)",0.0161,0.0926,,-0.0008,-0.0066,-0.08,0.0517,,0.0794,,,,0.002,0.0826,0.0111,-0.0318,,0.0859,0.0603,
